How the values were obtained:
[1] = Oral bioavailability in human; assay type: ADME, organism-based; conditions: in vivo
[2] = In vitro rate of absorption observed as Caco-2 permeability in humans; assay type: ADME, cell-based; conditions: human, read-out: Papp e-6
[3] = Metabolic stability observed at 30 min after administration in human liver microsomes; assay type: ADME, Microsome; conditions: read-out: R

Row | SMILES | bioavailability [1] [%] | Papp [2] [×10⁻⁶ cm/s] | remaining at 0.5 h [3] [%]
1 | COc1ccc2c(c1)c(CC(=O)O)c(C)n2C(=O)c1ccc(Cl)cc1 [INDOMETHACIN] | 98 | 20.4 | 95
2 | CC(=O)CC(c1ccccc1)c1c(O)c2ccccc2oc1=O (centres undefined) [WARFARIN] |  | 38.3 | 
3 | NC(=O)N1c2ccccc2C=Cc2ccccc21 [CARBAMAZEPINE] | 70 | 22.8 | 96

Now from value to molecule:

Row | bioavailability [1] [%] | Papp [2] [×10⁻⁶ cm/s] | remaining at 0.5 h [3] [%] | SMILES
4 | 18 | 2 | 100 | OC[C@@H](O)[C@@H](O)[C@H](O)[C@H](O)CO [MANNITOL]
5 | 50 | 12.8 | 71 | CC(C)(C)NC[C@H](O)COc1nsnc1N1CCOCC1 [TIMOLOL]
6 | 38 | 27 | 73 | COCCc1ccc(OCC(O)CNC(C)C)cc1 (centres undefined) [METOPROLOL]
7 | 26 | 41.9 | 29 | CC(C)NCC(O)COc1cccc2ccccc12 (centres undefined) [PROPRANOLOL]

Source: ChEMBL document CHEMBL1135799, “Graphical model for estimating oral bioavailability of drugs in humans and other species from their Caco-2 permeability and in vitro liver enzyme metabolic stability rates” (J Med Chem, 2002)
